Assay results as given in patent publication US20260317329A1, “DRUG LINKERS AND ANTIBODY CONJUGATES THEREOF” (Ambrx, Inc., priority 2022, published 2026).

How the values were obtained:
Type in all cases: cell-based
[1] = tested on: NCI-H929 (CD70 negative) cells; assay: In vitro cytotoxicity in CD70 negative NCI-H929 cells (CellTiter-Glo 2.0, 4 days); conditions: Homo sapiens, 96 h; for Emax at 0.025 µM: maximal killing at 25 nM
Description: (§1) Small molecule duocarmycin analogs (compounds 4, 13, 15, 17 and 38) and anti-CD70 ADCs (anti-CD70-12, anti-CD70-14, anti-CD70-16 and anti-CD70-18) were evaluated for cytotoxicity. Briefly, 786-0 (CD70 positive) cells were seeded into 96-well clear bottom white plate at 1,000 cells/well and incubated overnight in a 37° C. and 5% CO2 incubator. NCI-H929 (CD70 negative) cells were seeded 30,000 cells/well just before the time of treatment of test articles. The serially diluted small molecule drugs or anti-CD70 ADCs were added to the wells and the plates were incubated for 4 days in a 37° C. and 5% CO2 incubator. At the end of incubation, CellTiter-Glo2.0 Reagent (Promega, Madison, WI) was added to the room temperature equilibrated plates and luminescence was measured in a SpectraMax M5E plate reader. The relative viability was calculated as a percentage of untreated cells. The half-maximal inhibitory concentration (IC50) was determined by a nonlinear 4-parameter dose-response curve fitting using GraphPad Prism (GraphPad Software, San Diego, CA). The maximal killing (Emax) was determined by subtracting the % viability at the indicated dose from 100%.

[2] = tested on: 786-O (CD70 positive) cells; assay: In vitro cytotoxicity in CD70 positive 786-O cells (CellTiter-Glo 2.0, 4 days); conditions: Homo sapiens; for Emax at 0.025 µM: maximal killing at 25 nM
Description: as §1

[3] = tested on: SNU449 (GPC3 negative) cells; assay: In vitro cytotoxicity in GPC3 negative SNU449 cells (CellTiter-Glo 2.0, 3 days); conditions: Homo sapiens, SNU-449, 72 h; for Emax at 0.03 µM: maximal killing at 30 nM
Description: (§2) Anti-GPC3 ADCs were prepared via conjugation of GPC3 clone 1 mAb containing non-natural amino acid pAF with each of compounds 12, 14, 16 and 18. The corresponding ADCs (hereinafter, anti-GPC3-12, anti-GPC3-14, anti-GPC3-16 and anti-GPC3-18 respectively) and small molecule duocarmycin analogs (compounds 15 and 17) were evaluated for cytotoxicity. Briefly, HepG2 and SNU449 cells were seeded into 96-well white opaque plate at 3,000 cells/well and incubated overnight in a 37° C. and 5% CO2 incubator. The serially diluted small molecule drugs or anti-GPC3 ADCs were added to the wells and the plates were incubated for 3 days in a 37° C. and 5% CO2 incubator. At the end of incubation, CellTiter-Glo2.0 Reagent (Promega, Madison, WI) was added to the room temperature equilibrated plates and luminescence was measured in a SpectraMax M5E plate reader. The relative viability was calculated as a percentage of untreated cells. The half-maximal inhibitory concentration (IC50) was determined by a nonlinear 4-parameter dose-response curve fitting using GraphPad Prism (GraphPad Software, San Diego, CA). The maximal killing (Emax) was determined by subtracting the % viability at the indicated dose from 100%.

[4] = tested on: HepG2 (GPC3 positive) cells; assay: In vitro cytotoxicity in GPC3 positive HepG2 cells (CellTiter-Glo 2.0, 3 days); conditions: Homo sapiens, 72 h; for Emax at 0.03 µM: maximal killing at 30 nM
Description: as §2

[5] = 786-0, 96 h, 786-O (CD70 Positive), 4 days

SMILES | IC50 [1] | Emax at 0.025 µM [1] | IC50 [2, 5] | Emax at 0.025 µM [2, 5] | IC50 [3] | Emax at 0.03 µM [3] | IC50 [4] | Emax at 0.03 µM [4] | IC50 ([2]; 786-0 (CD70-positive), first test of benchmark free drug and ADC)
COc1cc2cc(C(=O)N3C[C@@H](CCl)c4c3cc(O)c3[nH]c(C(=O)N5CCc6ccccc65)cc43)[nH]c2c(OC)c1OC [Compound 4, (S)-(8-(chloromethyl)-4-hydroxy-6-(5,6,7-trimethoxy-1H-indole-2-carbonyl)-3,6,7,8-tetrahydropyrrolo[3,2-e]indol-2-yl)(indolin-1-yl)methanone] | 0.804 nM | 99.7% | 0.0089 nM | 99% |  |  |  |  | 
COc1cc2c(cc1OC)N(C(=O)c1cc3c4c(cc(O)c3[nH]1)N(C(=O)c1cc3cc(OC)c(OC)c(OC)c3[nH]1)C[C@H]4CCl)CC2 [Compound 13] | 1.79 nM | 99.5% | 0.0166 nM | 99.2% |  |  |  |  | 
COc1cc2cc(C(=O)N3C[C@@H](CCl)c4c3cc(O)c3[nH]c(C(=O)N5CCc6ccncc65)cc43)[nH]c2c(OC)c1OC [Compound 15] | 9.12 nM | 82.4% | 0.0626 nM | 98.1% | 0.427 nM | 91.1% | 0.41 nM | 96.5% | 
COc1cc2cc(C(=O)N3C[C@@H](CCl)c4c3cc(O)c3[nH]c(C(=O)N5CCc6cc(OCCN7CCOCC7)ccc65)cc43)[nH]c2c(OC)c1OC [Compound 17] | 2.59 nM | 97.6% | 0.0179 nM | 99.3% | 0.245 nM | 94.2% | 0.217 nM | 97.6% | 
COc1cc2cc(C(=O)N3C[C@@H](CCl)c4c3cc(O)c3ccccc43)[nH]c2c(OC)c1OC [Compound 38, reference compound] | 0.791 nM | 99.5% | 0.561 nM | 97.4% |  |  |  |  | 
COC(=O)c1cc2c3c(cc(O)c2[nH]1)N(C(=O)c1cc2cc(OC)c(OC)c(OC)c2[nH]1)C[C@H]3CCl [Compound 39, (S)-seco-duocarmycin SA, reference compound] |  |  |  |  |  |  |  |  | 0.065 nM
